Assay results published in PMC3041239 (Journal of Medicinal Chemistry, 2011).
Marks after values point to notes of the source that are not given here.

Key:
rats [1] = details: rat, cited from earlier work
[2] = sc administration; cited from earlier work
rats [3] = experiment: Tail-flick test in the rat after sc administration; type: in vivo; details: pair 15 vs 16
human μ opioid receptor = human μ opioid receptor (Homo sapiens, UniProt P35372); type: biochemical
κ opioid receptor = details: third value of μ:δ:κ; cited from earlier work
δ opioid receptor = details: second value of μ:δ:κ; cited from earlier work
μ opioid receptor = details: first value of μ:δ:κ; cited from earlier work

Sequence of human μ opioid receptor (P35372 whole entry): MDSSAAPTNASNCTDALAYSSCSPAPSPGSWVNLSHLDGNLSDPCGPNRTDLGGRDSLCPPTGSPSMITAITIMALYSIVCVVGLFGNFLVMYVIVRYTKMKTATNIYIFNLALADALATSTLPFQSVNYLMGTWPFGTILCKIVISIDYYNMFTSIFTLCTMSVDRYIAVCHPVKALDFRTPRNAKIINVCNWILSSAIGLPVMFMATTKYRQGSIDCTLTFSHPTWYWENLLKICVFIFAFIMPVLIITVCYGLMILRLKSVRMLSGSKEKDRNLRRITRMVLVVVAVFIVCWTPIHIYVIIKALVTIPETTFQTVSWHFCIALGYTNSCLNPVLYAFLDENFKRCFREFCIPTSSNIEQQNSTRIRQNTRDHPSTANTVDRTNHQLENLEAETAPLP

Row | SMILES | ED50 (nmol/kg, sc), time after drug administration 0.5 h (rats [1]) | ED50 (nmol/kg, sc), time after drug administration 1 h (rats [1]) | ED50 (nmol/kg, sc), time after drug administration 2 h (rats [1]) | functional character at the μ receptor (human μ opioid receptor) | also measured
1 | CO[C@@]12CC[C@H](NCC(=O)O)[C@@H]3Oc4c(O)ccc5c4[C@@]31CCN(C)[C@@H]2C5 [Compound 9] | 137 nmol/kg | 58.5 ^c nmol/kg | 143 nmol/kg |  | ED50 (nmol/kg, sc), time after drug administration 3 h (rats [1]; 3 h): 437 nmol/kg
2 | CO[C@@]12CC[C@@H](NCC(=O)O)[C@@H]3Oc4c(O)ccc5c4[C@@]31CCN(C)[C@@H]2C5 [Compound 10, 2-[(4,5α-Epoxy-3-hydroxy-14β-methoxy-17-methylmorphinan-6β-yl)amino] acetic Acid] | 50.8 nmol/kg | 29.0 ^c nmol/kg | 43.3 nmol/kg |  | antinociceptive potency lower than that of 14-O-methyloxymorphone (1) [2]: 2 fold
3 | CC(C)(C)OC(=O)CN[C@@H]1CC[C@@]2(OCCCc3ccccc3)[C@H]3Cc4ccc(O)c5c4[C@@]2(CCN3CC2CC2)[C@H]1O5 [Compound 16] |  |  |  |  | difference in the potency between α and β epimers (rats [3]): 13 fold
4 | Cl.Cl.O=C(O)CN[C@H]1CC[C@@]2(OCCCc3ccccc3)[C@H]3Cc4ccc(O)c5c4[C@@]2(CCN3CC2CC2)[C@H]1O5 [Compound 17, [[17-Cyclopropylmethyl-4,5α-epoxy-3-hydroxy-14β-[(3-phenylpropyl)oxy]morphinan-6α-yl]amino]acetic Acid Dihydrochloride] |  |  |  | highly potent partial agonists | 
5 | Cl.Cl.O=C(O)CN[C@@H]1CC[C@@]2(OCCCc3ccccc3)[C@H]3Cc4ccc(O)c5c4[C@@]2(CCN3CC2CC2)[C@H]1O5 [Compound 18, [[17-Cyclopropylmethyl-4,5α-epoxy-3-hydroxy-14β-[(3-phenylpropyl)oxy]morphinan-6β-yl]amino]acetic Acid Dihydrochloride] |  |  |  | highly potent partial agonists | 
6 | O=C1CC[C@@]2(O)[C@H]3Cc4ccc(O)c5c4[C@@]2(CCN3CC2CC2)[C@H]1O5 [naltrexone] |  |  |  |  | binding affinity κ (κ opioid receptor): 0.40; binding affinity δ (δ opioid receptor): 8.70; binding affinity μ (μ opioid receptor): 0.20
